Holding throughout (format): cell-based
The test system of experiment [1] is pERK (ERK phosphorylation). Briefly: Western blot analysis of pERK levels in SN12C cells treated with inhibitors/compounds. Particulars: for pERK levels in shY/T cells with increasing concentrations: HCl 1 h 0-12 mM, BAPTA 3 h 0-13 μM, Baf 3 h 0-0.5 μM; for pERK levels in Ctrl cells: CaCl2 2 hours 0, 0.5, 1, 2 mM (FIG. 7K), bicarbonate (FIG. 8K); for pERK levels in shY/T cells: western blot. How it is done:
(§1) Cells were grown for 24 hours in serum-free medium in the presence of various inhibitors unless indicated otherwise. After a brief wash with cold PBS, cells were lysed in urea buffer (9.5 M urea, 2% 3-[(3-cholamidopropyl)dimethylammonio]-1-propanesulfonate (CHAPS)), adjusted to similar concentrations, mixed with 6× sodium dodecyl sulfate (SDS) loading dye, heated at 95° C. for 10 minutes, and subjected to SDS-polyacrylamide gel electrophoresis and semi-dry transferring to polyvinylidene fluoride (PVDF) membranes. For analysis of oxidative phosphorylation (OXPHOS) complexes, 2×10^7 Ctrl and shY/T cells were harvested and either saved as whole cell extract (WCE) or processed using the Mitochondria Isolation Kit for cultured cells according to the manufacturer's instructions (Thermo Fisher Scientific). The WCE and mitochondrial-enriched fraction were resuspended in radioimmunoprecipitation assay (RIPA) buffer for western blot analysis.
In general terms: Immunoblotting shows a protein as a band on a membrane.

The test system of experiment [2] is Ctrl and shY/T SN12C cells. As to the kind of experiment: Nutrient deprivation experiments, percent change in RFP fluorescence (proliferation and survival). The following applies: 3 days; for proliferation under nutrient-replete conditions: Ctrl and shY/T SN12C; for proliferation under nutrient-replete conditions / Glc- and Gln-starvation-induced cell death in shY/T cells: GSH 0.3 mM or EGF 1 μg/ml; for Glc- and Gln-starvation-induced cell death in shY/T cells: shY/T SN12C. How it is done:
For SN12C cells, all medium in nutrient deprivation studies contained a base of RPMI salt mix (0.42 mM Ca(NO3)2.4H2O, 0.41 mM MgSO4, 5.4 mM KCl, 23.8 mM NaHCO3, 102.7 mM NaCl, and 5.6 mM Na2HPO4), RPMI 1640 vitamins solution (Millipore Sigma, St. Louis, Mo.), MEM amino acids solution (ThermoFisher Scientific), and MEM non-essential amino acids solution (Sigma). Nutrient replete conditions received 11.1 mM glucose (Millipore Sigma) and 2 mM glutamine (Lonza, Benicia, Calif.) and deprivation conditions lacked or contain reduced amount of their respective nutrient as indicated. For SC4 cells, all medium in nutrient deprivation studies contained a base of DMEM without glucose or glutamine (#D5030, Millipore Sigma) and supplemented with sodium pyruvate and sodium bicarbonate to levels in standard DMEM formulation. For conditions with glucose or glutamine, 5.6 mM glucose (Millipore Sigma) and/or 4 mM glutamine (Lonza) were added. Reduced cellular glutathione (GSH) (Alfa Aesar, Haverhill, Mass.) and epidermal growth factor (EGF) (Millipore Sigma) were used at final concentrations of 0.3 mM and 1 μg/ml, respectively. Percent survival was calculated based on the sequential measurements of red fluorescent protein (RFP) fluorescence (filter range 553-574 nm) at the initiation and end of treatment using the Synergy™ Hybrid Multi-Mode Microplate Reader (BioTek, Winooski, Vt.). A one-way ANOVA with Sidak's multiple comparison test was used to calculate significance for all nutrient deprivation experiments.

The subject of experiment [3] is pAKT (AKT phosphorylation). As to the kind of experiment: Western blot analysis of pAKT levels in SN12C cells. Particulars: for pAKT levels in Ctrl cells: Ctrl SN12C cells treated overnight, western blot. The procedure: as §1
The subject of experiment [4] is shY/T SN12C cells. Briefly: Media pH measurements. Particulars: shY/T SN12C grown overnight with 0 or 0.3 μM bafilomycin. The procedure: Cells were plated at the same time with optimized seeding densities that ensure all cell lines to reach 80% confluence at the time of measurement. Medium supernatant was collected and measured using the Thermo Scientific™ Orion™ 3-Star Benchtop pH Meter after calibration.

The test system of experiment [5] is shY/T SN12C cells. As to the kind of experiment: Intracellular calcium assay. Particulars: shY/T SN12C grown overnight with 0 or 0.3 μM bafilomycin. How it is done: Cells were grown for indicated time in serum-free medium, washed with ice-cold PBS, collected in 100 mM Tris pH 7.5 buffer using cell scraper, and processed using the Calcium Assay Kit (Cayman Chemicals) according to the manufacturer's instructions. The calcium concentrations were normalized to the protein concentrations determined using Bradford Protein Assay (Bio-Rad).
A general note: Calcium assays in cells follow changes in intracellular calcium, usually with a dye or a luminescent sensor.

The test system of experiment [6] is Ctrl and shY/T SN12C cells. As to the kind of experiment: Lysosome inhibitor treatment of Ctrl and shY/T cells under different nutrient conditions. The following applies: bafilomycin 24 hours, chloroquine 3 days, −Glc or −Gln medium.
Method: Nutrient replete conditions received 11.1 mM glucose (Millipore Sigma) and 2 mM glutamine (Lonza, Benicia, Calif.) and deprivation conditions lacked or contain reduced amount of their respective nutrient as indicated. For SC4 cells, all medium in nutrient deprivation studies contained a base of DMEM without glucose or glutamine (#D5030, Millipore Sigma) and supplemented with sodium pyruvate and sodium bicarbonate to levels in standard DMEM formulation. For conditions with glucose or glutamine, 5.6 mM glucose (Millipore Sigma) and/or 4 mM glutamine (Lonza) were added. […] Percent survival was calculated based on the sequential measurements of red fluorescent protein (RFP) fluorescence (filter range 553-574 nm) at the initiation and end of treatment using the Synergy™ Hybrid Multi-Mode Microplate Reader (BioTek, Winooski, Vt.). […]
Cells were plated at optimized seeding densities to reach 60-70% confluence on the next day, at which point the media were replaced with serum-free medium containing Dox and serially diluted compounds or vehicle control. […] After incubation for indicated time, cell viability was measured using the CellTiter-Glo Luminescence Cell Viability assay (Promega) or ATPlite Luminescence Assay (Perkin Elmer) for FIG. 1B. Percent viability for each cell lines was calculated based on vehicle control.
Setting [7] is: shY/T SN12C cells treated overnight.

Where a name gives a salt, the structure may show the parent alone.

Consider `O=C(O)CN(CC(=O)O)c1ccccc1OCCOc1ccccc1N(CC(=O)O)CC(=O)O` [BAPTA], for which, in experiment [1] (shY/T SN12C), the “pERK levels in shY/T cells with increasing concentrations” value is “reduced pERK levels in a dose-dependent manner”. As for `O=C(O)O` [Bicarbonate, NaHCO3], the “pERK levels in Ctrl cells” value in experiment [1] (Ctrl cells) was “raised pERK levels”. On to `COc1ccc2cc(-c3cc(-c4cc(C(F)(F)F)ccc4F)nn3[C@@H](C)c3ccc(C(=O)NCCC(=O)O)cc3)ccc2c1` [GRA-1], for which the “pERK levels in shY/T cells” value in experiment [1] (setting [7]) was “none of the GPCR inhibitors reduced ERK phosphorylation”. With `N[C@@H](CCC(=O)N[C@@H](CS)C(=O)NCC(=O)O)C(=O)O` [GSH, glutathione], in experiment [2] (Ctrl SN12C, −Glc or −Gln, GSH 0.3 mM), the “Glc- and Gln-starvation-induced cell death in Ctrl cells” value is given as “had no effect”. Moreover, the “proliferation under nutrient-replete conditions” value in experiment [2] was “did not affect the proliferation”. Moreover, the “Glc- and Gln-starvation-induced cell death in shY/T cells” value in experiment [2] (−Glc or −Gln) was “significantly inhibited”. As for `O=S(=O)(NCCNC/C=C/c1ccc(Br)cc1)c1cccc2cnccc12` [H-89], the “pAKT levels in Ctrl cells” value in experiment [3] is listed as “without also blocking pAKT”. The “pERK levels in shY/T cells, combination of PKA inhibitor H-89 and EPAC inhibitor HJC” value in experiment [1] (shY/T SN12C cells treated overnight, FIG. 8E) was “synergizes with EPAC inhibitor HJC in reducing pERK levels”. In addition, the “pERK levels in shY/T cells” value in experiment [1] (setting [7]) is recorded as “specifically inhibited ERK phosphorylation”.

For `Cl` [HCl], the “pERK levels in shY/T cells with increasing concentrations” value in experiment [1] (shY/T SN12C) was “reduced pERK levels in a dose-dependent manner”.

`CC(Sc1nc2ccccc2[nH]1)C(=O)N/N=C/c1cc(Br)ccc1O` (centres unmarked) [KH7]: in experiment [3], the “pAKT levels in Ctrl cells” value was “not pAKT”. Also, the “bicarbonate-raised pERK levels in Ctrl cells” value in experiment [1] (Ctrl cells, bicarbonate plus KH7, FIG. 8K) was “blocked by KH7”. In addition, in experiment [1] (setting [7]), the “pERK levels in shY/T cells” value is given as “drastically inhibited pERK levels”. As for `CNc1ncc2cc(-c3cc(NC(=O)NCCC(C)(C)C)c(F)cc3C)c(C)nc2n1` [LY3009120], in experiment [3], the “pAKT levels in Ctrl cells” value was “did not reduce pAKT levels”. The “pERK levels in shY/T cells” value in experiment [1] (setting [7]) is given as “inhibited pERK levels”. Take `Cl.c1ccc(C2CCCC2NC2=NCCCCCCCCCCC2)cc1` (centres unmarked) [MDL 12330A]: in experiment [1] (overnight, FIG. 8K), the “ERK phosphorylation, tmAC activator/inhibitor alone or in combination” value is on record as “no effect on ERK phosphorylation”. Regarding `Nc1ncnc2c1ncn2[C@@H]1O[C@@H]2COP(O)(=S)O[C@H]2[C@H]1O` (some centres unmarked) [Rp-cAMP], the “pAKT levels in Ctrl cells” value in experiment [3] is given as “without affecting pAKT”. Also, the “pERK levels in shY/T cells” value in experiment [1] (setting [7]) is given as “specifically inhibited ERK phosphorylation”.

With `CN=c1nc(-c2ccccc2)n(-c2ccccc2)s1` [SCH 202676], the “pERK levels in shY/T cells” value in experiment [1] (setting [7]) is “none of the GPCR inhibitors reduced ERK phosphorylation”. For the molecule `CNC(=O)c1cc(Oc2ccc(NC(=O)Nc3ccc(Cl)c(C(F)(F)F)c3)cc2)ccn1` [Sorafenib], in experiment [3], the “pAKT levels in Ctrl cells” value is on record as “did not reduce pAKT levels”. In addition, in experiment [1] (setting [7]), the “pERK levels in shY/T cells” value is on record as “inhibited pERK levels”. Regarding `CC(C)NCC(O)c1ccc(NS(C)(=O)=O)cc1` (centres unmarked) [Sotalol], in experiment [1] (setting [7]), the “pERK levels in shY/T cells” value was “none of the GPCR inhibitors reduced ERK phosphorylation”. On to `CO/C1=C\C(C)=C\[C@@H](C)[C@@H](O)[C@@H](C)C/C(C)=C/C=C/[C@H](OC)[C@@H]([C@@H](C)[C@@H](O)[C@H](C)[C@@]2(O)C[C@@H](O)[C@H](C)[C@@H](C(C)C)O2)OC1=O` [bafilomycin], for which the “media pH” value with shY/T SN12C cells [4] is listed as “significantly reduced pH”. Moreover, the “bafilomycin-mediated ERK inhibition with exogenous HCO3−” value in experiment [1] (shY/T SN12C, 3 h, 0.3 μM Baf and/or 25 mM NaHCO3) is “rescued by the addition of exogenous HCO3^−”. Moreover, the “pERK levels in shY/T cells with increasing concentrations” value in experiment [1] (shY/T SN12C) is listed as “inhibited ERK phosphorylation in a dose-dependent manner”. Besides, the intracellular calcium concentration entry in the experiment with shY/T SN12C cells [5] was “significantly reduced pH and calcium levels”. For the same molecule, the “sensitivity of NF2-mutant cells to lysosomal inhibition upon YAP/TAZ depletion” value in experiment [6] was “increased the sensitivity of NF2-mutant cells to lysosomal inhibition, especially under nutrient-deprived conditions”.

Turning to `[Ca+2].[Cl-].[Cl-]` [calcium, CaCl2], the “pERK levels in Ctrl cells” value in experiment [1] (Ctrl cells) is reported as “increased pERK levels”. For the molecule `CCN(CC)CCCC(C)Nc1ccnc2cc(Cl)ccc12` (centres unmarked) [chloroquine], the “sensitivity of NF2-mutant cells to lysosomal inhibition upon YAP/TAZ depletion” value in experiment [6] was “increased the sensitivity of NF2-mutant cells to lysosomal inhibition, especially under nutrient-deprived conditions”.

On to “EGF: epidermal growth factor (NSDSECPLSHDGYCLHDGVCMYIEALDKYACNCVVGYIGERCQYRDLKWWELR; Epidermal growth factor; UniProt P01133 971-1023, looked up)”, for which the “AKT phosphorylation in shY/T cells” value in experiment [3] (shY/T SN12C cells after addition of EGF) is on record as “partially rescued AKT phosphorylation”. For the same molecule, in experiment [2], the “proliferation under nutrient-replete conditions” value is “allowed shY/T cells to regain the ability to proliferate”. The “Glc- and Gln-starvation-induced cell death in shY/T cells” value in experiment [2] (−Glc or −Gln) is on record as “did not prevent cell death”.
